18 molecules from patent US8952157B2, “Apoptosis-inducing agents for the treatment of cancer and immune and autoimmune diseases” (AbbVie Inc., priority 2008, dated 2015) can be followed below.

Where only a bound is given, the exact number is not on record here.

The target in the test is GST-Bcl-2 (Homo sapiens (Human), UniProt P10415). Description: Time Resolved-Fluorescence Resonance Energy Transfer (TR-FRET) Bcl-2 binding assay. The conditions noted are these: GST-Bcl-2 1 nM, F-Bak peptide probe 100 nM, Tb-anti-GST antibody 1 nM; Ki by Wang's equation. A digest of the protocol: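 Ki values derived from TR-FRET displacement of F-Bak peptide from GST-Bcl-2, detected with Tb-labelled anti-GST antibody (ex 340, em 520/495 nm). Compound dilution series started at 50 μM (2× starting concentration); room-temperature incubation 3 hours.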
GST-Bcl-2, sequence (P10415 whole entry): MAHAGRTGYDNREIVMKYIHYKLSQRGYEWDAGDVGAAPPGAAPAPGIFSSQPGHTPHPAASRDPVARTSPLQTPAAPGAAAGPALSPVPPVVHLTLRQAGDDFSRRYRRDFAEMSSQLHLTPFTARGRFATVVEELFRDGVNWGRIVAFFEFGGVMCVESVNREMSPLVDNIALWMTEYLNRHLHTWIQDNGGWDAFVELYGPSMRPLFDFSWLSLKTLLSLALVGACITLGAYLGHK
For `CC1(C)CCC(CN2CCN(c3ccc(C(=O)NS(=O)(=O)c4ccc(NCC5CCOCC5)c([N+](=O)[O-])c4)c(Oc4cc(N)nc(Br)c4)c3)CC2)=C(c2ccc(Cl)cc2)C1` [Example 379, 2-[(2-amino-6-bromopyridin-4-yl)oxy]-4-(4-{[2-(4-chlorophenyl)-4,4-dimethylcyclohex-1-en-1-yl]methyl}piperazin-1-yl)-N-({3-nitro-4-[(tetrahydro-2H-pyran-4-ylmethyl)amino]phenyl}sulfonyl)benzamide], the Ki stood at 17.9 nM.
Turning to `CC1(C)CCC(CN2CCN(c3ccc(C(=O)NS(=O)(=O)c4ccc(NCC5CCOCC5)c([N+](=O)[O-])c4)c(Oc4cc(N)nc(N)c4)c3)CC2)=C(c2ccc(Cl)cc2)C1` [Example 380, 4-(4-{[2-(4-chlorophenyl)-4,4-dimethylcyclohex-1-en-1-yl]methyl}piperazin-1-yl)-2-[(2,6-diaminopyridin-4-yl)oxy]-N-({3-nitro-4-[(tetrahydro-2H-pyran-4-ylmethyl)amino]phenyl}sulfonyl)benzamide], the Ki came out at 8.27 nM.
Take `CC1(C)CCC(CN2CCN(c3ccc(C(=O)NS(=O)(=O)c4ccc(OCC5CCOCC5)c([N+](=O)[O-])c4)c(Oc4cnc(N)c(Cl)c4)c3)CC2)=C(c2ccc(Cl)cc2)C1` [Example 381, 2-[(6-amino-5-chloropyridin-3-yl)oxy]-4-(4-{[2-(4-chlorophenyl)-4,4-dimethylcyclohex-1-en-1-yl]methyl}piperazin-1-yl)-N-{[3-nitro-4-(tetrahydro-2H-pyran-4-ylmethoxy)phenyl]sulfonyl}benzamide]: the affinity, expressed as Ki, was 0.02 nM. Against the preceding molecule, the Ki is about 410-fold lower.
Regarding `CC1(C)CCC(CN2CCN(c3ccc(C(=O)NS(=O)(=O)c4ccc(N[C@@H]5CCCN(C(CF)CF)C5)c([N+](=O)[O-])c4)c(Oc4cnc(N)c(Cl)c4)c3)CC2)=C(c2ccc(Cl)cc2)C1` [Example 382, 2-[(6-amino-5-chloropyridin-3-yl)oxy]-4-(4-{[2-(4-chlorophenyl)-4,4-dimethylcyclohex-1-en-1-yl]methyl}piperazin-1-yl)-N-{[4-({(3R)-1-[2-fluoro-1-(fluoromethyl)ethyl]piperidin-3-yl}amino)-3-nitrophenyl]sulfonyl}benzamide], the Ki was 0.114 nM.
Under `CC1(C)CCC(CN2CCN(c3ccc(C(=O)NS(=O)(=O)c4ccc(NCC5CCOCC5)c([N+](=O)[O-])c4)c(Oc4cc(NC(=O)OC(C)(C)C)ncc4Br)c3)CC2)=C(c2ccc(Cl)cc2)C1` [Example 383, tert-butyl 5-bromo-4-(5-(4-{[2-(4-chlorophenyl)-4,4-dimethylcyclohex-1-en-1-yl]methyl}piperazin-1-yl)-2-{[({3-nitro-4-[(tetrahydro-2H-pyran-4-ylmethyl)amino]phenyl}sulfonyl)amino]carbonyl}phenoxy)pyridin-2-ylcarbamate] stands 427 nM; under `CC1(C)CCC(CN2CCN(c3ccc(C(=O)NS(=O)(=O)c4ccc(NCC5CCOCC5)c([N+](=O)[O-])c4)c(Oc4cnc5[nH]ccc5c4Cl)c3)CC2)=C(c2ccc(Cl)cc2)C1` [Example 384, 4-(4-{[2-(4-chlorophenyl)-4,4-dimethylcyclohex-1-en-1-yl]methyl}piperazin-1-yl)-2-[(4-chloro-1H-pyrrolo[2,3-b]pyridin-5-yl)oxy]-N-({3-nitro-4-[(tetrahydro-2H-pyran-4-ylmethyl)amino]phenyl}sulfonyl)benzamide], 6.23 nM.
Consider `CC1(C)CCC(CN2CCN(c3ccc(C(=O)NS(=O)(=O)c4ccc(NCC5CCOCC5)c([N+](=O)[O-])c4)c(Oc4ccc(NCC(F)(F)F)nc4)c3)CC2)=C(c2ccc(Cl)cc2)C1` [Example 385, 4-(4-{[2-(4-chlorophenyl)-4,4-dimethylcyclohex-1-en-1-yl]methyl}piperazin-1-yl)-N-({3-nitro-4-[(tetrahydro-2H-pyran-4-ylmethyl)amino]phenyl}sulfonyl)-2-({6-[(2,2,2-trifluoroethyl)amino]pyridin-3-yl}oxy)benzamide], for which the Ki is 49.3 nM. Compared with the last molecule, the Ki is about 7.9-fold higher.
`CC1(C)CCC(CN2CCN(c3ccc(C(=O)NS(=O)(=O)c4ccc(NCC5CCC(O)CC5)c([N+](=O)[O-])c4)c(Oc4cnc(N)c(Cl)c4)c3)CC2)=C(c2ccc(Cl)cc2)C1` (stereo not drawn) [Example 386, 2-[(6-amino-5-chloropyridin-3-yl)oxy]-4-(4-{[2-(4-chlorophenyl)-4,4-dimethylcyclohex-1-en-1-yl]methyl}piperazin-1-yl)-N-[(4-{[(4-hydroxycyclohexyl)methyl]amino}-3-nitrophenyl)sulfonyl]benzamide] gave a Ki of under 0.01 nM.
For `CC1(C)CC(c2ccc(Cl)cc2)=C(CN2CCN(c3ccc(C(=O)NS(=O)(=O)c4ccc(NCC5CCOCC5)c([N+](=O)[O-])c4)c(Oc4cnc(N)c(Cl)c4)c3)CC2)CO1` [Example 387, 2-[(6-amino-5-chloropyridin-3-yl)oxy]-4-(4-{[4-(4-chlorophenyl)-6,6-dimethyl-5,6-dihydro-2H-pyran-3-yl]methyl}piperazin-1-yl)-N-({3-nitro-4-[(tetrahydro-2H-pyran-4-ylmethyl)amino]phenyl}sulfonyl)benzamide], the Ki was under 0.01 nM.
Under `CC1(C)CC(c2ccc(Cl)cc2)=C(CN2CCN(c3ccc(C(=O)NS(=O)(=O)c4cnc(OCC5(F)CCOCC5)c(Cl)c4)c(Oc4cc5cc[nH]c5cc4F)c3)CC2)CO1` [Example 388, N-({5-chloro-6-[(4-fluorotetrahydro-2H-pyran-4-yl)methoxy]pyridin-3-yl}sulfonyl)-4-(4-{[4-(4-chlorophenyl)-6,6-dimethyl-5,6-dihydro-2H-pyran-3-yl]methyl}piperazin-1-yl)-2-[(6-fluoro-1H-indol-5-yl)oxy]benzamide] stands 0.02 nM.
As to `CC1(C)CCC(CN2CCN(c3ccc(C(=O)NS(=O)(=O)c4ccc(NCC5CCOC5)c([N+](=O)[O-])c4)c(Oc4cnc(N)c(Cl)c4)c3)CC2)=C(c2ccc(Cl)cc2)C1` (stereo not drawn) [Example 389, 2-[(6-amino-5-chloropyridin-3-yl)oxy]-4-(4-{[2-(4-chlorophenyl)-4,4-dimethylcyclohex-1-en-1-yl]methyl}piperazin-1-yl)-N-({3-nitro-4-[(tetrahydrofuran-3-ylmethyl)amino]phenyl}sulfonyl)benzamide], the Ki is under 0.01 nM.
With `CC1(C)CC(c2ccc(Cl)cc2)=C(CN2CCN(c3ccc(C(=O)NS(=O)(=O)c4cnc(OCC5(F)CCOCC5)c(Cl)c4)c(Oc4cnc(N)c(Cl)c4)c3)CC2)CO1` [Example 390, 2-[(6-amino-5-chloropyridin-3-yl)oxy]-N-({5-chloro-6-[(4-fluorotetrahydro-2H-pyran-4-yl)methoxy]pyridin-3-yl}sulfonyl)-4-(4-{[4-(4-chlorophenyl)-6,6-dimethyl-5,6-dihydro-2H-pyran-3-yl]methyl}piperazin-1-yl)benzamide], the Ki is under 0.01 nM.
Under `Nc1ncc(Oc2cc(N3CCN(CC4=C(c5ccc(Cl)cc5)CCC5(CCN(C(CF)CF)CC5)C4)CC3)ccc2C(=O)NS(=O)(=O)c2ccc(NCC3CCOCC3)c([N+](=O)[O-])c2)cc1Cl` [Example 391, 2-[(6-amino-5-chloropyridin-3-yl)oxy]-4-[4-({9-(4-chlorophenyl)-3-[2-fluoro-1-(fluoromethyl)ethyl]-3-azaspiro[5.5]undec-8-en-8-yl}methyl)piperazin-1-yl]-N-({3-nitro-4-[(tetrahydro-2H-pyran-4-ylmethyl)amino]phenyl}sulfonyl)benzamide] stands under 0.01 nM; under `CC(C)N1CCC2(CCC(c3ccc(Cl)cc3)=C(CN3CCN(c4ccc(C(=O)NS(=O)(=O)c5ccc(NCC6CCOCC6)c([N+](=O)[O-])c5)c(Oc5cnc(N)c(Cl)c5)c4)CC3)C2)CC1` [Example 392, 2-[(6-amino-5-chloropyridin-3-yl)oxy]-4-(4-{[9-(4-chlorophenyl)-3-isopropyl-3-azaspiro[5.5]undec-8-en-8-yl]methyl}piperazin-1-yl)-N-({3-nitro-4-[(tetrahydro-2H-pyran-4-ylmethyl)amino]phenyl}sulfonyl)benzamide], under 0.01 nM; under `CN(C)CC(=O)N1CCC(F)(COc2ncc(S(=O)(=O)NC(=O)c3ccc(N4CCN(CC5=C(c6ccc(Cl)cc6)CC(C)(C)CC5)CC4)cc3Oc3cnc(N)c(Cl)c3)cc2Cl)CC1` [Example 393, 2-[(6-amino-5-chloropyridin-3-yl)oxy]-N-[(5-chloro-6-{[1-(N,N-dimethylglycyl)-4-fluoropiperidin-4-yl]methoxy}pyridin-3-yl)sulfonyl]-4-(4-{[2-(4-chlorophenyl)-4,4-dimethylcyclohex-1-en-1-yl]methyl}piperazin-1-yl)benzamide], under 0.01 nM.
Take `CC1(C)CCC(CN2CCN(c3ccc(C(=O)NS(=O)(=O)c4ccc(N[C@@H]5CCN(C(CF)CF)C5)c([N+](=O)[O-])c4)c(Oc4cnc(N)c(Cl)c4)c3)CC2)=C(c2ccc(Cl)cc2)C1` [Example 394, 2-[(6-amino-5-chloropyridin-3-yl)oxy]-4-(4-{[2-(4-chlorophenyl)-4,4-dimethylcyclohex-1-en-1-yl]methyl}piperazin-1-yl)-N-{[4-({(3R)-1-[2-fluoro-1-(fluoromethyl)ethyl]pyrrolidin-3-yl}amino)-3-nitrophenyl]sulfonyl}benzamide]: the Ki was determined as 0.018 nM.
Under `CC1(C)CCC(CN2CCN(c3ccc(C(=O)NS(=O)(=O)c4ccc(NCC5CCOCC5)c([N+](=O)[O-])c4)c(Oc4cc(N)ncc4Br)c3)CC2)=C(c2ccc(Cl)cc2)C1` [Example 395, 2-[(2-amino-5-bromopyridin-4-yl)oxy]-4-(4-{[2-(4-chlorophenyl)-4,4-dimethylcyclohex-1-en-1-yl]methyl}piperazin-1-yl)-N-({3-nitro-4-[(tetrahydro-2H-pyran-4-ylmethyl)amino]phenyl}sulfonyl)benzamide] stands 0.077 nM; under `CC1(C)CCC(CN2CCN(c3ccc(C(=O)NS(=O)(=O)c4ccc(NCC5CCC(F)(F)CC5)c([N+](=O)[O-])c4)c(Oc4cnc(N)c(Cl)c4)c3)CC2)=C(c2ccc(Cl)cc2)C1` [Example 396, 2-[(6-amino-5-chloropyridin-3-yl)oxy]-4-(4-{[2-(4-chlorophenyl)-4,4-dimethylcyclohex-1-en-1-yl]methyl}piperazin-1-yl)-N-[(4-{[(4,4-difluorocyclohexyl)methyl]amino}-3-nitrophenyl)sulfonyl]benzamide], under 0.01 nM.
